One assay has as its system stress ulcer in rats. Briefly: Action to stress ulcer in rats (restraint and water immersion). The class given is in vivo, Male Wister rats. Particulars: Rattus norvegicus, po, 30 minutes before restraint, inhibition ratio, read-out: Ulcer Index (%). On the procedure: (Action to stress ulcer in rats)
Male Wister rats weighing about 180 g (age: 6 weeks) were used for this experiment.
Ten rats in each group were deprived of food for 24 hours before the experiment. They were immobilized in a restraint cage and immersed for 7 hours to the height of the xiphoid in a water bath kept at 23±1°C. After inflation with 10 ml of 1% formalin, the isolated stomach was opened along the greater curvature. The ulcer index (UI) was determined as the sum of the length (mm) of each erosion per rat. Each of the compounds to be tested was suspended in 5% gum arabic solution and given orally 30 minutes before restraint. Control animals received the same solution without any drug or the test compound.
(§1) Inhibition ratio is expressed as follows. [formula]

Another assay has as its system gastric necrosis in rats. Kind of assay: Action to gastric necrosis in rats (absolute ethanol). The class given is in vivo, Male Sprague-Dewley rats. Particulars: po, 1 hour before absolute ethanol, inhibition ratio. The protocol:
(Action to gastric necrosis in rats)
Male Sprague-Dewley rats weighing about 250 g were used for this experiment.
Ten rats in each group were deprived of food for 24 hours before the experiment. Each of the compounds to be tested was suspended in 5% gum arabic solution and given orally to the test animal. After 1 hours from the administration of the compound. 1 ml of absolute ethanol was administered orally and the animals were killed 1 hour later from the ethanol administration. After inflation with 10 ml of 1% formalin, the isolated stomach was opened along the greater curvature. The ulcer index (UI) was determined as the sum of the length (mm) of each erosion per rat. […]. Control animals received the same solution without any drug or the test compound.
as §1

Structures can show the parent of a compound that is named as a salt.

For `CC1(C)[C@@H](OCCC(=O)O)CC[C@]2(C)[C@H]3CC=C4[C@@H]5C[C@@](C)(C(=O)O)CC[C@]5(C)CC[C@@]4(C)[C@]3(C)CC[C@@H]12` [Compound 9, 3β-(2-Carboxyethoxy)-18β-olean-12-en-30-oic acid disodium salt], in the assay with stress ulcer in rats, the inhibition in vivo at 25 mg/kg was -0.7%, the inhibition in vivo at 50 mg/kg is 11.8% and the inhibition in vivo at 100 mg/kg came to 26.1%.

In the case of `COc1ccccc1N1CCN(C(=O)[C@@]2(C)CC[C@]3(C)CC[C@]4(C)C(=CC[C@@H]5[C@@]6(C)CC[C@H](OC(=O)CCC(=O)O)C(C)(C)[C@@H]6CC[C@]54C)[C@@H]3C2)CC1` [Compound 4m, sodium salt], in the assay on stress ulcer in rats, the inhibition in vivo at 25 mg/kg was 9.5%, the inhibition in vivo at 50 mg/kg turned out to be 26.5% and the inhibition in vivo at 100 mg/kg worked out at 23.2%.

For the compound `CC(C)=CCCC(C)=CCCC(C)=CCCC(C)=CCSCCNC(=O)[C@@]1(C)CC[C@]2(C)CC[C@]3(C)C(=CC[C@@H]4[C@@]5(C)CC[C@H](OC(=O)/C=C\C(=O)O)C(C)(C)[C@@H]5CC[C@]43C)[C@@H]2C1` [Compound 4c], in the assay with stress ulcer in rats, the inhibition in vivo at 12.5 mg/kg came out at 33.3%, the inhibition in vivo at 25 mg/kg was found to be 30.5%, the inhibition in vivo at 50 mg/kg came to 46.8% and the inhibition in vivo at 100 mg/kg was 61%. The “Ulcer Index (%)” value with gastric necrosis in rats (25 mg/kg) worked out at 43.3%. Further, the “Ulcer Index (%)” value in the assay with gastric necrosis in rats (50 mg/kg) is on record as 66.1%. In addition, the “Ulcer Index (%)” value with gastric necrosis in rats (100 mg/kg) is listed as 48.9%.

With `COc1ccccc1N1CCN(C(=O)[C@@]2(C)CC[C@]3(C)CC[C@]4(C)C(=CC[C@@H]5[C@@]6(C)CC[C@H](OC(=O)/C=C\C(=O)O)C(C)(C)[C@@H]6CC[C@]54C)[C@@H]3C2)CC1` [Compound 4i], in the assay on stress ulcer in rats, the inhibition in vivo at 25 mg/kg was 24.4%, the inhibition in vivo at 50 mg/kg was determined as 61.4% and the inhibition in vivo at 100 mg/kg is 76.5%.

With `COc1ccccc1N1CCN(C(=O)[C@@]2(C)CC[C@]3(C)CC[C@]4(C)C(=CC(=O)[C@@H]5[C@@]6(C)CC[C@H](OC(=O)/C=C\C(=O)O)C(C)(C)[C@@H]6CC[C@]54C)[C@@H]3C2)CC1` [Compound 4l], in the assay with stress ulcer in rats, the inhibition in vivo at 12.5 mg/kg was 6.3%, the inhibition in vivo at 25 mg/kg amounted to 25.9% and the inhibition in vivo at 50 mg/kg worked out at 31.7%.

On to `CC(C)=CCCC(C)=CCCC(C)=CCN1CCN(C(=O)[C@@]2(C)CC[C@]3(C)CC[C@]4(C)C(=CC[C@@H]5[C@@]6(C)CC[C@H](OC(=O)/C=C\C(=O)O)C(C)(C)[C@@H]6CC[C@]54C)[C@@H]3C2)CC1` [Compound 4g], for which, in the assay with stress ulcer in rats, the inhibition in vivo at 12.5 mg/kg is 11.7%, the inhibition in vivo at 25 mg/kg came to 22.5% and the inhibition in vivo at 50 mg/kg was found to be 21.6%.

For the compound `CC1(C)[C@@H](OCC(=O)O)CC[C@]2(C)[C@H]3CC=C4[C@@H]5C[C@@](C)(C(=O)O)CC[C@]5(C)CC[C@@]4(C)[C@]3(C)CC[C@@H]12` [Compound 6, 3β-(carboxymethoxy)-18β-olean-12-en-30-oic acid disodium salt], in the assay on stress ulcer in rats, the inhibition in vivo at 25 mg/kg amounted to 7.2%, the inhibition in vivo at 50 mg/kg turned out to be 42.5% and the inhibition in vivo at 100 mg/kg is 59.8%.

As for `COc1ccccc1N1CCN(C(=O)[C@@]2(C)CC[C@]3(C)CC[C@]4(C)C(=CC[C@@H]5[C@@]6(C)CC[C@H](O)C(C)(C)[C@@H]6CC[C@]54C)[C@@H]3C2)CC1` [Compound 2i, 1-(3β-hydroxy-18β-olean-12-en-30-oyl)-4-(o-methoxyphenyl)piperazine], in the assay on stress ulcer in rats, the inhibition in vivo at 25 mg/kg was -18%, the inhibition in vivo at 50 mg/kg was 4.9% and the inhibition in vivo at 100 mg/kg was 46.4%.

Take `CC(=CCSCCNC(=O)[C@@]1(C)CC[C@]2(C)CC[C@]3(C)C(=CC[C@@H]4[C@@]5(C)CC[C@H](OC(=O)/C=C\C(=O)O)C(C)(C)[C@@H]5CC[C@]43C)[C@@H]2C1)CCCC(C)CCCC(C)CCCC(C)C` (stereo partly shown) [Compound 4f]: in the assay with stress ulcer in rats, the inhibition in vivo at 25 mg/kg turned out to be 16.5%, the inhibition in vivo at 50 mg/kg came to 4.3% and the inhibition in vivo at 100 mg/kg amounted to 34.5%.

For the compound `CC(C)=CCCC(C)=CCCC(C)=CCCC(C)=CCCC(C)=CCCC(C)=CCCC(C)=CCCC(C)=CCCC(C)=CCSCCNC(=O)C1(C)CCC2(C)CCC3(C)C(=CCC4C5(C)CCC(OC(=O)C=CC(=O)O)C(C)(C)C5CCC43C)C2C1` (stereo not shown) [Compound 4d], in the assay on stress ulcer in rats, the inhibition in vivo at 12.5 mg/kg is 33.9%, the inhibition in vivo at 25 mg/kg amounted to 55.4%, the inhibition in vivo at 50 mg/kg is 42.1% and the inhibition in vivo at 100 mg/kg came out at 56.2%. Besides, the “Ulcer Index (%)” value in the assay on gastric necrosis in rats (25 mg/kg) was 31.7%. For the same compound, in the assay with gastric necrosis in rats (50 mg/kg), the “Ulcer Index (%)” value came out at 20.6%. The “Ulcer Index (%)” value in the assay on gastric necrosis in rats (100 mg/kg) is on record as 39.2%.

Regarding `CC(C)=CCCC(C)=CCCC(C)=CCSCCNC(=O)[C@@]1(C)CC[C@]2(C)CC[C@]3(C)C(=CC[C@@H]4[C@@]5(C)CC[C@H](OC(=O)/C=C\C(=O)O)C(C)(C)[C@@H]5CC[C@]43C)[C@@H]2C1` [Compound 4b], in the assay on stress ulcer in rats, the inhibition in vivo at 25 mg/kg stood at 51%, the inhibition in vivo at 50 mg/kg stood at 62.6% and the inhibition in vivo at 100 mg/kg is 60.5%.

`CC(C)=CCCC(C)=CCCC(C)=CCCC(C)=CCCC(C)=CCCC(C)=CCCC(C)=CCCC(C)=CCCC(C)=CCCC(C)=CCSCCNC(=O)C1(C)CCC2(C)CCC3(C)C(=CCC4C5(C)CCC(OC(=O)C=CC(=O)O)C(C)(C)C5CCC43C)C2C1` (stereo not shown) [Compound 4e]: in the assay with stress ulcer in rats, the inhibition in vivo at 12.5 mg/kg is 50%, the inhibition in vivo at 25 mg/kg was determined as 44.7%, the inhibition in vivo at 50 mg/kg was found to be 53.5% and the inhibition in vivo at 100 mg/kg was determined as 60.5%. For the same compound, in the assay with gastric necrosis in rats (25 mg/kg), the “Ulcer Index (%)” value is reported as 21.3%. Besides, the “Ulcer Index (%)” value in the assay on gastric necrosis in rats (50 mg/kg) is given as -9.5%. In addition, the “Ulcer Index (%)” value with gastric necrosis in rats (100 mg/kg) is -34.7%.

Take `CC(C)=CCCC(C)=CCCC(C)=CCOC(=O)[C@@]1(C)CC[C@]2(C)CC[C@]3(C)C(=CC[C@@H]4[C@@]5(C)CC[C@H](OC(=O)/C=C\C(=O)O)C(C)(C)[C@@H]5CC[C@]43C)[C@@H]2C1` [Compound 4h]: in the assay with stress ulcer in rats, the inhibition in vivo at 12.5 mg/kg was found to be 8%, the inhibition in vivo at 25 mg/kg stood at 6.1% and the inhibition in vivo at 50 mg/kg stood at 35.7%.

Consider `CC(C)=CCCC(C)=CCCC(C)=CCCC(C)=CCCC(C)=CCCC(C)=CCCC(C)=CCCC(C)=CCCC(C)=CCCC(C)=CCSCCNC(=O)C1(C)CCC2(C)CCC3(C)C(=CC(=O)C4C5(C)CCC(OC(=O)C=CC(=O)O)C(C)(C)C5CCC43C)C2C1` (stereo not shown) [Compound 4k], for which, in the assay with stress ulcer in rats, the inhibition in vivo at 12.5 mg/kg was determined as 48.5%, the inhibition in vivo at 25 mg/kg was determined as 45.5%, the inhibition in vivo at 50 mg/kg was found to be 43.6% and the inhibition in vivo at 100 mg/kg stood at 56.4%. Moreover, the “Ulcer Index (%)” value in the assay on gastric necrosis in rats (25 mg/kg) amounted to 58.7%. Also, the “Ulcer Index (%)” value in the assay on gastric necrosis in rats (50 mg/kg) was determined as 10.9%. Also, the “Ulcer Index (%)” value in the assay with gastric necrosis in rats (100 mg/kg) amounted to 14.3%.

As to `CC(C)=CCCC(C)=CCSCCNC(=O)[C@@]1(C)CC[C@]2(C)CC[C@]3(C)C(=CC[C@@H]4[C@@]5(C)CC[C@H](OC(=O)/C=C\C(=O)O)C(C)(C)[C@@H]5CC[C@]43C)[C@@H]2C1` [Compound 4a, N-[2-(3,7-Dimethyl-2,6-octadien-1-ylthio)ethyl]-3β-(3-carboxy-cis-propenoyloxy)-18β-olean-12-en-30-amide sodium salt], in the assay on stress ulcer in rats, the inhibition in vivo at 25 mg/kg stood at 21.1%, the inhibition in vivo at 50 mg/kg stood at 58.2% and the inhibition in vivo at 100 mg/kg came out at 73.1%.

For the origin of these results see US4871740A, “Glycyrrhetic acid derivatives and use thereof” (Sanwa Kagaku Kenkyusho Co., Ltd., priority 1986, dated 1989).
